From patent US5948793A, “3-pyridyloxymethyl heterocyclic ether compounds useful in controlling neurotransmitter release” (Abbott Laboratories, priority 1995, dated 1999)
Counter-ions that a name gives are not always drawn. Like-named read-outs stand apart in the source and are kept apart here.

Tests used:
[1] = transdermal patches; cited from earlier work
[2] = in vivo; cited from earlier work
dopaminergic neurons = conditions: animals with induced brain injuries; cited from earlier work
heart = conditions: in vivo; cited from earlier work
[3] = test system: release of dopamine and acetylcholine; conditions: cited from earlier work
[4] = acutely- and chronically-administered; also observed in aged animals; cited from earlier work
[5] = cited from earlier work
[6] = test system: nAChR evoked release of [3H]-dopamine, rat striatal slices; assay: Striatal dopamine release assay (nAChR evoked release of [3H]-dopamine from superfused rat striatal slices); type: cell-based, rat (male Sprague-Dawley); conditions: Table 1, relative to 100 nM (-)-nicotine
Method: The protocol for this procedure follows below.
A. Protocol for Determination of Striatal Dopamine Release.
nAChR evoked release of [ring-2,5,6-^3 H]-dopamine (24.4 Ci/mmol) was measured in superfused rat striatal slices. Striata were dissected from two male Sprague-Dawley rats per experiment and sliced 0.35×0.25 mm by a McIlwain Tissue Chopper (Brinkman Instrument Co., Westbury, N.Y.). After two washes with Krebs-HEPES buffer (137 mM NaCl, 4.7 mM KCl, 1 mM MgSO4, 2.5 mM CaCl2, 1.25 mM NaH2 PO4, 10 mM glucose, 15 mM HEPES-NaOH, pH 7.4, containing 10 μM pargyline and 10 μM ascorbic acid), slices were preincubated for 10 minutes at 37° C. under 95%/5% O2 /CO2. After replacing the buffer, slices were labeled with 100 nM [^3 H]-dopamine for 25 min in Krebs-HEPES at 37° C. Aliquots of slices were placed in 18 superfusion chambers of a Brandel SP2000 superfusion apparatus (Brandel, Gaithersberg, Md.). Following 47 minutes of washout, slices were exposed to agonist at various concentrations for 4 minutes. Antagonists or inhibitors, when present were introduced 4 minutes prior to and during agonist exposure. Collected fractions were counted in 5 mL of Ecolume. Tissue was recovered from superfusion chambers, solubilized with 1 mL of Solvable™ (DuPont-NEN) and counted in 15 mL of Ecolume. Fractional release of [^3 H]-dopamine was calculated from radioactivity above baseline as a fraction of total radioactivity.

[7] = test system: cholinergic ligand-gated channels, PC12 cells; assay: Cholinergic channel activation in PC12 cells (whole-cell patch-clamp); type: cell-based
Source text: D. Protocols for the Determination of Cholinergic Channel Activation in PC12 Cells.
The cholinergic channel activator properties of Example 9 were investigated in PC12 cells using the whole-cell patch-clamp approach to measure current flow through ligand-gated membrane channels.

[8] = biological target: neuronal nicotinic cholinergic channel receptors; assay: [3H]-cytisine displacement binding to neuronal nicotinic cholinergic channel receptors; type: rat (crude synaptic membranes from whole rat brain); conditions: read-out: Receptor Binding Ki
Method: B. Protocol For Determination of Nicotinic Cholinergic Channel Receptor Binding Potencies of Ligands
Binding of [^3 H]-cytisine ([^3 H]-CYT) to nicotinic receptors was accomplished using crude synaptic membrane preparations from whole rat brain (Pabreza et al., Molecular Pharmaol., 1990, 39:9). Washed membranes were stored at -80° C. prior to use. Frozen aliquots were slowly thawed and resuspended in 20 volumes of buffer (containing: 120 mM NaCl, 5 mM KCl, 2 mM MgCl2, 2 mM CaCl2 and 50 mM Tris-Cl, pH 7.4 @4° C.). After centrifuging at 20,000×g for 15 minutes, the pellets were resuspended in 30 volumes of buffer. Homogenate (containing […]) was added to triplicate tubes containing concentrations of test compound and [^3 H]-CYT (1.25 nM) in a final volume of 500 μL. Samples were incubated for 60 minutes at 4° C., then rapidly filtered through Whatman GF/B filters presoaked in 0.5% polyethylimine using 3×4 mL of ice-cold buffer. The filters are counted in 4 mL of Ecolume® (ICN). […] Alternately, data were expressed as a percentage of the total specific binding.

[9] = example concentration * = 10 μM
[10] = Table 1, [3H]-cytisine 1.25 nM, 60 min at 4° C.

Row | SMILES | release of dopamine and acetylcholine [3] | Dopamine Release relative to Nicotine [6, 9] | Ki [8, 10] [nM] | other results
1 | CN1CCCC1c1cccnc1 (single isomer, unassigned; (-)) [(-)-nicotine] | enhance the release of dopamine and acetylcholine |  |  | symptoms of ADD [1]: improve the symptoms of ADD; sensory-gating impairments [2]: normalize sensory-gating impairments; pre-synaptic loss of functional dopaminergic neurons (dopaminergic neurons): can prevent pre-synaptic loss of functional dopaminergic neurons; cardiac workload and oxygen demand (heart): increasing cardiac workload and oxygen demand; cognitive function [4]: enhances cognitive function in rats; oral bioavailability [5]: poor oral bioavailability
2 | Cl.Cl.c1cncc(OC[C@@H]2CCN2)c1 [Example 9, 3-(2-(S)-azetidinylmethoxy)pyridine dihydrochloride] |  | 1.0 | 0.05 | cholinergic channel activator properties (current flow through ligand-gated channels) [7]: clear agonist activity
3 | Cl.Cl.Clc1cncc(OC[C@H]2CCCN2)c1 [Example 33, 5-chloro-3-(2-(R)-pyrrolidinylmethoxy)pyridine dihydrochloride] |  |  | 0.2 | Dopamine Release relative to Nicotine ([6]; example concentration ** = 1 μM): 0.62
4 | Cc1ccc(OC[C@H]2CCCN2)cn1.Cl.Cl [Example 37, 6-methyl-3-(2-(R)-pyrrolidinylmethoxy)pyridine dihydrochloride] |  | 0.8 |  | Ki [8]: 0.5 nM
5 | CCN1CCC[C@H]1COc1cccnc1.Cl.Cl [Example 38, 3-((1-ethyl-2(S)-pyrrolidinyl)methoxy)pyridine dihydrochloride] |  | 0.6 |  | Ki [8]: 13 nM
6 | Cc1ccncc1OC[C@@H]1CCCN1C.Cl.Cl [Example 46, 4-methyl-3-((1-methyl-2-(S)-pyrrolidinyl)methoxy)pyridine dihydrochloride] |  | 0.85 | 4 | 
7 | Clc1ccc(OC[C@@H]2CCN2)cn1 [Example 52, 3-(2-(S)-azetidinylmethoxy)-6-chloropyridine dihydrochloride] |  | 1.0 | 0.04 | 
8 | Cc1ccc(OC[C@@H]2CCN2C)cn1.Cl.Cl [Example 59, 3-((1-methyl-2-(S)-azetidinyl)methoxy)-6-methylpyridine dihydrochloride] |  | 0.7 | 4.5 | 
9 | C[C@H](N)Cc1ccccc1 [d-amphetamine] | enhance the release of dopamine and acetylcholine |  |  | 
10 | COC(=O)C(c1ccccc1)C1CCCCN1 (stereo not drawn) [methylphenidate] | enhance the release of dopamine and acetylcholine |  |  | 
